Measured values published in ChEMBL document CHEMBL5143724, “Small Molecules Promote Selective Denaturation and Degradation of Tubulin Heterodimers through a Low-Barrier Hydrogen Bond” (J Med Chem, 2022).
Calls of active or inactive are those of the source.

Experiments:
HeLa [1] = assay: Antiproliferative activity against human HeLa cells assessed as cell viability at 0.001 to 100 uM incubated for 48 hrs by MTT assay; assay type: functional, cell-based; conditions: dose 0.001-100 µM
[2] = biological target: T1, Tubulin beta (Homo sapiens) (UniProt P68371+Q9H4B7+Q13509+P04350+Q3ZCM7+P07437+Q13885+Q9BVA1+Q9BUF5+A6NNZ2); assay: Induction of Beta tubulin degradation in human HeLa cells at 0.001 to 100 uM incubated for 16 hrs by immunoblotting analysis; assay type: cell-based; conditions: dose 0.001-100 µM
HeLa [3] = assay: Reduction in Alpha tubulin mRNA expression in human HeLa cells at 1 uM measured upto 16 hrs by qPCR analysis; assay type: functional, cell-based
HeLa [4] = assay: Reduction in Beta tubulin mRNA expression in human HeLa cells at 1 uM measured upto 16 hrs by qPCR analysis; assay type: functional, cell-based
[5] = biological target: T2, Tubulin alpha (Homo sapiens) (UniProt P0DPH7+P68366+Q71U36+P68363+Q9BQE3+Q6PEY2+A6NHL2+Q9NY65); assay: Induction of Alpha tubulin degradation in human HeLa cells incubated for 24 hrs by immunoblot analysis; assay type: cell-based; conditions: DDE = dose-dependent effect
[6] = biological target: T1, Tubulin beta (Homo sapiens); assay: Induction of Beta tubulin degradation in human HeLa cells incubated for 24 hrs by immunoblot analysis; assay type: cell-based; conditions: DDE = dose-dependent effect
[7] = biological target: T2, Tubulin alpha (Homo sapiens); assay: Induction of Alpha tubulin degradation in human HeLa cells at 1 uM incubated for 16 hrs in presence of maytansine by immunoblot analysis; assay type: cell-based
[8] = biological target: T1, Tubulin beta (Homo sapiens); assay: Induction of Beta tubulin degradation in human HeLa cells at 1 uM incubated for 16 hrs in presence of pironetin by immunoblot analysis; assay type: cell-based
Tubulin (Sus scrofa) = Tubulin (Sus scrofa) (UniProt P02554+P02550); assay: Induction of porcine tubulin aggregation assessed as formation of spherical sized tubulin aggregates at 20 uM incubated for 4 hrs by TEM analysis; assay type: protein assay
Tubulin (Homo sapiens) = Tubulin (Homo sapiens) (UniProt P68371+Q9H4B7+P0DPH7+P68366+Q13509+Q71U36+P04350+Q3ZCM7+P07437+P68363+Q9BQE3+Q6PEY2+Q13885+Q9BVA1+Q9BUF5); assay: Induction of tubulin denaturation (unknown origin) pre incubated for 2 to 8 hrs with compound followed by GH addition measured after 30 mins by spectrophotometer based microplate reader method; assay type: protein-complex assay; conditions: time 2.5-8.5 hrs
[9] = biological target: T2, Tubulin alpha (Homo sapiens); assay: Induction of Alpha tubulin degradation in human HCT-116 cells incubated for 24 hrs by immunoblot analysis; assay type: cell-based; conditions: dose 0.3-30 µM, DDE = dose-dependent effect
[10] = biological target: T1, Tubulin beta (Homo sapiens); assay: Induction of Beta tubulin degradation in human HCT-116 cells incubated for 24 hrs by immunoblot analysis; assay type: cell-based; conditions: dose 0.3-30 µM, DDE = dose-dependent effect

Measured: Activity

Chain of Tubulin (Sus scrofa) (P02550 whole entry, looked up): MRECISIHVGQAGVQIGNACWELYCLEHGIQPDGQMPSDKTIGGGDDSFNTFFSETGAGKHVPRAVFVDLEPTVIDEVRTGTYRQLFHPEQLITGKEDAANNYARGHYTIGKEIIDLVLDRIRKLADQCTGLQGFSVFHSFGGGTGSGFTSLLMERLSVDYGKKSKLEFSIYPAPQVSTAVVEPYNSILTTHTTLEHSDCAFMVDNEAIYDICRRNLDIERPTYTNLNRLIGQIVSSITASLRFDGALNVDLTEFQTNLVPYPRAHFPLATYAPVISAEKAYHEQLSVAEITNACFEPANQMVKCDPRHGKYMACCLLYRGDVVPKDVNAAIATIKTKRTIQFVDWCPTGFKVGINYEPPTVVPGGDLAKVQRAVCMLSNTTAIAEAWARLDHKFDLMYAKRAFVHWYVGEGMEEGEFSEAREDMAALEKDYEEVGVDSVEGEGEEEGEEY
Chain of Tubulin (Sus scrofa) (P02554 whole entry, looked up): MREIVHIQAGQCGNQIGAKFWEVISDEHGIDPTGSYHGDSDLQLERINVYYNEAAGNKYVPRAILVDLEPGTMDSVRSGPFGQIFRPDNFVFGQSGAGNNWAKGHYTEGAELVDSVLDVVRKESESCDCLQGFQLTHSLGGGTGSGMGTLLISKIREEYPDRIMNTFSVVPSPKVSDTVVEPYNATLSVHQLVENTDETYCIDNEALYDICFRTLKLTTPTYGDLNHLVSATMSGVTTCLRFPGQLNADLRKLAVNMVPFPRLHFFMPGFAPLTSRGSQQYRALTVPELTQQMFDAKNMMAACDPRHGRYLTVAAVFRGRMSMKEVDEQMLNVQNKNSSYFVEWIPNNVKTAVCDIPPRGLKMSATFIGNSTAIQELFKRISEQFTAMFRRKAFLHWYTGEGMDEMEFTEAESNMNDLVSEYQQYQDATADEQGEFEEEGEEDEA

c1ccc(Oc2cccc(CCc3cc4c(cn3)[nH]c3ccccc34)c2)cc1
active: HeLa [1] | [2]

CCCCNc1cc2c(cn1)[nH]c1ccccc12
active: HeLa [1] | [2]

c1ccc(Oc2cccc(CNc3ccccn3)c2)cc1
active: HeLa [1] | [2]

COc1cccc(-c2cc(NCc3ccc4c(c3)OCO4)nc(N)n2)c1
active: HeLa [3] | HeLa [4] | [5] Dde | [6] Dde | [7] | [8] | Tubulin (Sus scrofa) | Tubulin (Homo sapiens) | [9] Dde | [10] Dde
